Tests used:
Format in all cases: cell-based
[1] = tested on: SU-DHL-4; experiment: Cell Titer Glo viability assay, SU-DHL-4; conditions: Homo sapiens; SU-DHL-4, DLBCL; single agent; 72 hours; read-out: Inhibition of Viability, EC50
Description: (§1) All procedures were performed at Gilead Sciences, Inc. in Branford, The compound of formula (I), cyclophosphamide, doxorubicin and vincristine sulfate were dissolved in DMSO to prepare stock solutions that were serially diluted three-fold in DMSO in a 96 well plate format at 1000× so the final starting assay concentrations tested would be 10 μM, 200 μM, 10 μM, and 1 μM respectively, for each compound. Compound plates were diluted 1:100 in RPMI without serum or additives creating a 10× stock. Cells were seeded into a 96-well plate at 10,000-20,000 cells per well in 100 μl of growth media appropriate to the cell line supplemented with 100 U/L penicillin-streptomycin. OCI-Ly3, OCI-Ly4 and OCI-Ly7 were grown in Iscove's+20% FBS, OCI-Ly19 was grown in alphaMEM+20% FBS, and all other cell lines were grown in RPMI+10% FBS. To each well, 11 μl of 10× compound was added in a final concentration of 0.1% DMSO and cells were incubated at 37° C. in 5% CO2 for 72 hours. Cell viability was assessed with Cell Titer Glo (Promega, Madison, Wis.) following the manufacturer's protocol on an Envision plate reader (Perkin Elmer, Waltham, Mass.). EC50 values were determined using a four parameter variable slope model with GraphPad Prism 6.0 software. All EC50 values represent mean values of from duplicate dose response curves.

[2] = tested on: SU-DHL-6; experiment: Cell Titer Glo viability assay, SU-DHL-6; conditions: Homo sapiens; SU-DHL-6, DLBCL; single agent; 72 hours; read-out: Inhibition of Viability, EC50
Description: as §1

[3] = tested on: Karpas 422; experiment: Cell Titer Glo viability assay, Karpas 422; conditions: Homo sapiens; Karpas 422, DLBCL; single agent; 72 hours; read-out: Inhibition of Viability, EC50
Description: as §1

[4] = tested on: OCI-LY3; experiment: Cell Titer Glo viability assay, OCI-LY3; conditions: Homo sapiens; OCI-LY3, DLBCL; single agent; 72 hours; read-out: Inhibition of Viability, EC50
Description: as §1

[5] = tested on: OCI-LY4; experiment: Cell Titer Glo viability assay, OCI-LY4; conditions: OCI-LY4, DLBCL; single agent; 72 hours; read-out: Inhibition of Viability, EC50
Description: as §1

[6] = tested on: OCI-LY19; experiment: Cell Titer Glo viability assay, OCI-LY19; conditions: Homo sapiens; OCI-LY19, DLBCL; single agent; 72 hours; read-out: Inhibition of Viability, EC50
Description: as §1

[7] = tested on: Pfeiffer; experiment: Cell Titer Glo viability assay, Pfeiffer; conditions: Homo sapiens, DLBCL, single agent, 72 hours, read-out: Inhibition of Viability, EC50
Description: as §1

[8] = tested on: Mino; experiment: Cell Titer Glo viability assay, Mino; conditions: Homo sapiens; Mino, MCL; single agent; 72 hours; read-out: Inhibition of Viability, EC50
Description: as §1

[9] = tested on: KMS-11; experiment: Cell Titer Glo viability assay, KMS-11; conditions: Homo sapiens; KMS-11, MM; single agent; 72 hours; read-out: Inhibition of Viability, EC50
Description: as §1

[10] = tested on: MM1.S; experiment: Cell Titer Glo viability assay, MM1.S; conditions: Homo sapiens, MM, single agent, 72 hours, read-out: Inhibition of Viability, EC50
Description: as §1

[11] = tested on: OPM-2; experiment: Cell Titer Glo viability assay, OPM-2; conditions: Homo sapiens; OPM-2, MM; single agent; 72 hours; read-out: Inhibition of Viability, EC50
Description: as §1

[12] = tested on: WSU-FSCCL; experiment: Cell Titer Glo viability assay, WSU-FSCCL; conditions: WSU-FSCCL, FL; single agent; 72 hours; read-out: Inhibition of Viability, EC50
Description: as §1

[13] = tested on: WSU-NHL; experiment: Cell Titer Glo viability assay, WSU-NHL; conditions: Homo sapiens, FL, single agent, 72 hours, read-out: Inhibition of Viability, EC50
Description: as §1

EC50 [1] [nM] | EC50 [2] [nM] | EC50 [3] [nM] | EC50 [4] [nM] | EC50 [5] [nM] | EC50 [6] [nM] | EC50 [10] [nM] | Compound | EC50 [7] [nM] | EC50 [8] [nM] | EC50 [9] [nM] | EC50 [11] [nM] | EC50 [12] [nM] | EC50 [13] [nM]
75 | 12 | 62 | 12 | < 1 | 1.2 | 59 | CC[C@]1(O)C[C@H]2CN(CCc3c([nH]c4ccccc34)[C@@](C(=O)OC)(c3cc4c(cc3OC)N(C=O)[C@H]3[C@@](O)(C(=O)OC)[C@H](OC(C)=O)[C@]5(CC)C=CCN6CC[C@]43[C@@H]65)C2)C1 [Vincristine, vincristine] | 4 | 42 | 103 | 97 | 58 | 39
> 3000 | > 3000 | > 3000 | > 3000 | > 3000 | > 3000 | > 3000 | c1cn2cc(-c3ccc4cn[nH]c4c3)nc(Nc3ccc(N4CCOCC4)cc3)c2n1 [Compound of Formula I, 6-(1H-indazol-6-yl)-N-(4-morpholinophenyl)imidazo[1,2-a]pyrazin-8-amine] | > 3000 | > 3000 | > 3000 | > 3000 | > 3000 | > 3000

Reference: US10080756B2, “Combination methods for treating cancers” (Gilead Sciences, Inc., priority 2014, dated 2018)
